From the NIST ThermoML archive (doi:10.1021/je401036f)
± gives the expanded uncertainty stated by the source.

Experiment: xn = mol fraction of the nth substance listed
Settings: 101 kPa, Liquid; for viscosity: Concentric cylinders viscometry; for mass density: Vibrating tube method

CC(O)CN (stereo not given) [1-amino-2-propanol] + CCCCO
Settings | mass density [kg/m3] | viscosity [mPa·s]
288.15 K, x1 = 0.1 | 827.167 ± 0.26 | 4.019 ± 0.12
288.15 K, x1 = 0.2005 | 841.339 ± 0.3 | 4.952 ± 0.15
288.15 K, x1 = 0.3 | 855.625 ± 0.34 | 6.238 ± 0.19
288.15 K, x1 = 0.3999 | 870.246 ± 0.38 | 8.046 ± 0.25
288.15 K, x1 = 0.5 | 885.14 ± 0.43 | 10.48 ± 0.33
288.15 K, x1 = 0.6001 | 900.478 ± 0.49 | 13.85 ± 0.43
288.15 K, x1 = 0.7 | 916.099 ± 0.55 | 18.2 ± 0.57
288.15 K, x1 = 0.8 | 932.069 ± 0.62 | 24.34 ± 0.77
288.15 K, x1 = 0.8997 | 948.249 ± 0.7 | 32.26 ± 1
288.15 K, x1 = 1 | 964.544 ± 0.8 | 43.7 ± 1.4
293.15 K, x1 = 0.1 | 823.338 ± 0.26 | 3.444 ± 0.11
293.15 K, x1 = 0.2005 | 837.455 ± 0.3 | 4.218 ± 0.13
293.15 K, x1 = 0.3 | 851.736 ± 0.33 | 5.202 ± 0.16
293.15 K, x1 = 0.3999 | 866.053 ± 0.38 | 6.617 ± 0.2
293.15 K, x1 = 0.5 | 881.2 ± 0.43 | 8.455 ± 0.26
293.15 K, x1 = 0.6001 | 896.524 ± 0.48 | 10.88 ± 0.34
293.15 K, x1 = 0.7 | 912.152 ± 0.55 | 14.08 ± 0.44
293.15 K, x1 = 0.8 | 928.119 ± 0.62 | 18.34 ± 0.58
293.15 K, x1 = 0.8997 | 944.296 ± 0.7 | 23.93 ± 0.76
293.15 K, x1 = 1 | 960.598 ± 0.79 | 31.68 ± 1
298.15 K, x1 = 0.1 | 819.488 ± 0.26 | 2.989 ± 0.092
298.15 K, x1 = 0.2005 | 833.571 ± 0.3 | 3.62 ± 0.11
298.15 K, x1 = 0.3 | 847.825 ± 0.33 | 4.398 ± 0.14
298.15 K, x1 = 0.3999 | 862.123 ± 0.38 | 5.507 ± 0.17
298.15 K, x1 = 0.5 | 877.169 ± 0.43 | 6.858 ± 0.21
298.15 K, x1 = 0.6001 | 892.563 ± 0.48 | 8.782 ± 0.27
298.15 K, x1 = 0.7 | 908.181 ± 0.55 | 11.03 ± 0.35
298.15 K, x1 = 0.8 | 924.144 ± 0.62 | 14.18 ± 0.45
298.15 K, x1 = 0.8997 | 940.31 ± 0.7 | 18.16 ± 0.57
298.15 K, x1 = 1 | 956.618 ± 0.79 | 23.54 ± 0.75
303.15 K, x1 = 0.1 | 815.611 ± 0.26 | 2.615 ± 0.081
303.15 K, x1 = 0.2005 | 829.669 ± 0.3 | 3.129 ± 0.097
303.15 K, x1 = 0.3 | 843.892 ± 0.33 | 3.756 ± 0.12
303.15 K, x1 = 0.3999 | 858.167 ± 0.38 | 4.639 ± 0.14
303.15 K, x1 = 0.5 | 873.195 ± 0.42 | 5.721 ± 0.18
303.15 K, x1 = 0.6001 | 888.575 ± 0.48 | 7.156 ± 0.22
303.15 K, x1 = 0.7 | 904.186 ± 0.54 | 8.892 ± 0.28
303.15 K, x1 = 0.8 | 920.144 ± 0.61 | 11.17 ± 0.35
303.15 K, x1 = 0.8997 | 936.303 ± 0.69 | 14.06 ± 0.44
303.15 K, x1 = 1 | 952.612 ± 0.78 | 17.9 ± 0.57
308.15 K, x1 = 0.1 | 811.706 ± 0.26 | 2.298 ± 0.071
308.15 K, x1 = 0.2005 | 825.735 ± 0.3 | 2.726 ± 0.084
308.15 K, x1 = 0.3 | 839.932 ± 0.33 | 3.23 ± 0.1
308.15 K, x1 = 0.3999 | 854.42 ± 0.37 | 3.944 ± 0.12
308.15 K, x1 = 0.5 | 869.288 ± 0.42 | 4.788 ± 0.15
308.15 K, x1 = 0.6001 | 884.561 ± 0.48 | 5.904 ± 0.18
308.15 K, x1 = 0.7 | 900.162 ± 0.54 | 7.231 ± 0.23
308.15 K, x1 = 0.8 | 916.116 ± 0.61 | 8.949 ± 0.28
308.15 K, x1 = 0.8997 | 932.266 ± 0.69 | 11.1 ± 0.35
308.15 K, x1 = 1 | 948.577 ± 0.78 | 13.88 ± 0.44
313.15 K, x1 = 0.1 | 807.768 ± 0.26 | 2.03 ± 0.063
313.15 K, x1 = 0.2005 | 821.766 ± 0.3 | 2.389 ± 0.074
313.15 K, x1 = 0.3 | 835.94 ± 0.33 | 2.801 ± 0.087
313.15 K, x1 = 0.3999 | 850.406 ± 0.37 | 3.377 ± 0.11
313.15 K, x1 = 0.5 | 865.257 ± 0.42 | 4.049 ± 0.13
313.15 K, x1 = 0.6001 | 880.518 ± 0.48 | 4.929 ± 0.15
313.15 K, x1 = 0.7 | 896.106 ± 0.54 | 5.957 ± 0.19
313.15 K, x1 = 0.8 | 912.054 ± 0.61 | 7.272 ± 0.23
313.15 K, x1 = 0.8997 | 928.196 ± 0.69 | 8.9 ± 0.28
313.15 K, x1 = 1 | 944.515 ± 0.77 | 10.96 ± 0.35
318.15 K, x1 = 0.1 | 803.791 ± 0.26 | 1.801 ± 0.056
318.15 K, x1 = 0.2005 | 817.764 ± 0.29 | 2.104 ± 0.065
318.15 K, x1 = 0.3 | 831.911 ± 0.33 | 2.445 ± 0.076
318.15 K, x1 = 0.3999 | 846.355 ± 0.37 | 2.915 ± 0.091
318.15 K, x1 = 0.5 | 861.194 ± 0.42 | 3.454 ± 0.11
318.15 K, x1 = 0.6001 | 876.438 ± 0.47 | 4.159 ± 0.13
318.15 K, x1 = 0.7 | 892.017 ± 0.54 | 4.969 ± 0.16
318.15 K, x1 = 0.8 | 907.96 ± 0.6 | 5.989 ± 0.19
318.15 K, x1 = 0.8997 | 924.096 ± 0.68 | 7.238 ± 0.23
318.15 K, x1 = 1 | 940.423 ± 0.77 | 8.798 ± 0.28
323.15 K, x1 = 0.1 | 799.764 ± 0.26 | 1.606 ± 0.05
323.15 K, x1 = 0.2005 | 813.705 ± 0.29 | 1.865 ± 0.058
323.15 K, x1 = 0.3 | 827.834 ± 0.33 | 2.144 ± 0.067
323.15 K, x1 = 0.3999 | 842.264 ± 0.37 | 2.535 ± 0.079
323.15 K, x1 = 0.5 | 857.087 ± 0.42 | 2.973 ± 0.093
323.15 K, x1 = 0.6001 | 872.324 ± 0.47 | 3.541 ± 0.11
323.15 K, x1 = 0.7 | 887.889 ± 0.53 | 4.192 ± 0.13
323.15 K, x1 = 0.8 | 903.828 ± 0.6 | 4.994 ± 0.16
323.15 K, x1 = 0.8997 | 919.961 ± 0.68 | 5.96 ± 0.19
323.15 K, x1 = 1 | 936.293 ± 0.76 | 7.166 ± 0.23
328.15 K, x1 = 0.1 | 795.685 ± 0.27 | 1.436 ± 0.044
328.15 K, x1 = 0.2005 | 809.606 ± 0.29 | 1.662 ± 0.052
328.15 K, x1 = 0.3 | 823.708 ± 0.33 | 1.887 ± 0.059
328.15 K, x1 = 0.3999 | 838.127 ± 0.37 | 2.218 ± 0.069
328.15 K, x1 = 0.5 | 852.936 ± 0.42 | 2.579 ± 0.081
328.15 K, x1 = 0.6001 | 868.161 ± 0.47 | 3.047 ± 0.095
328.15 K, x1 = 0.7 | 883.72 ± 0.53 | 3.568 ± 0.11
328.15 K, x1 = 0.8 | 899.655 ± 0.6 | 4.211 ± 0.13
328.15 K, x1 = 0.8997 | 915.789 ± 0.67 | 4.976 ± 0.16
328.15 K, x1 = 1 | 932.13 ± 0.76 | 5.915 ± 0.19
333.15 K, x1 = 0.1 | 791.549 ± 0.27 | 1.302 ± 0.04
333.15 K, x1 = 0.2005 | 805.451 ± 0.29 | 1.499 ± 0.047
333.15 K, x1 = 0.3 | 819.532 ± 0.33 | 1.699 ± 0.053
333.15 K, x1 = 0.3999 | 833.936 ± 0.37 | 1.973 ± 0.061
333.15 K, x1 = 0.5 | 848.734 ± 0.41 | 2.286 ± 0.071
333.15 K, x1 = 0.6001 | 863.951 ± 0.47 | 2.663 ± 0.083
333.15 K, x1 = 0.7 | 879.505 ± 0.53 | 3.099 ± 0.097
333.15 K, x1 = 0.8 | 895.441 ± 0.59 | 3.618 ± 0.11
333.15 K, x1 = 0.8997 | 911.577 ± 0.67 | 4.225 ± 0.13
333.15 K, x1 = 1 | 927.93 ± 0.75 | 4.986 ± 0.16
